8 compounds from PubChem BioAssay (NCI) can be followed below.

Test systems include DU-145 prostate; HOP-62 NSCLC; HT29 colon; NCI/ADR-RES ovarian; OVCAR-5 ovarian; SF-539 CNS; SK-MEL-2 melanoma; SW-620 colon; T-47D breast; RPMI-8226 leukemia.
Assay in all cases: NCI tumour cell line growth inhibition, 48 h

Values joined by “and” are separate entries in the source; they are usually repeats but may differ in a detail not shown here. Identical values can stand only once.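 All cell lines were grown in 96-well plates and treated with compound for 48 hours. GI50: concentration for 50% inhibition of growth. Definition used: TGI = concentration required for complete inhibition of growth.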

As for `CC1=C[C@H]2c3c(c(O)c(O)c4oc5c(C)cccc5c(=O)c34)[C@H](c3cc(O)c(O)c4oc5c(C)cccc5c(=O)c34)[C@H]2C(C)(C)C1`, the GI50 with DU-145 prostate is 3.13 µM; in the experiment with HOP-62 NSCLC, 1.15 µM; in the experiment with HT29 colon, 2.12 µM; in the experiment on NCI/ADR-RES ovarian, 2.44 µM; with OVCAR-5 ovarian, 2.65 µM; in the experiment with SF-539 CNS, 1.67 µM. The GI50 in the experiment with SK-MEL-2 melanoma is 2.05 µM; with SW-620 colon it was 1.93 µM; with T-47D breast, 2.51 µM. Moreover, the TGI in the experiment with DU-145 prostate worked out at 14.9 µM; with HOP-62 NSCLC it was 3.44 µM; with HT29 colon it was 8.92 µM; with NCI/ADR-RES ovarian, 7.15 µM; in the experiment with OVCAR-5 ovarian, 10.6 µM; in the experiment with SF-539 CNS, 3.65 µM. Besides, the TGI in the experiment on SK-MEL-2 melanoma is 5.1 µM; in the experiment with SW-620 colon, 10 µM; with T-47D breast, 14.1 µM.

Consider `COc1ccc(-c2[nH]c3ccccc3c2C=C(C#N)C#N)cc1`, for which the GI50 is 0.484 µM with DU-145 prostate; 0.962 µM in the experiment on HOP-62 NSCLC; 0.371 µM in the experiment on HT29 colon; 0.335 µM in the experiment with NCI/ADR-RES ovarian; 2.35 µM with OVCAR-5 ovarian; 0.262 µM in the experiment on SF-539 CNS. Besides, the GI50 is 0.435 µM in the experiment with SW-620 colon and 0.481 µM in the experiment on T-47D breast. Further, the TGI is above 21.7 µM with DU-145 prostate; 21.8 µM in the experiment on HOP-62 NSCLC; above 100 µM in the experiment with HT29 colon; 4.7 µM with NCI/ADR-RES ovarian; above 100 µM in the experiment on OVCAR-5 ovarian; 0.795 µM in the experiment with SF-539 CNS. Further, the TGI with SK-MEL-2 melanoma, in the experiment on SW-620 colon and in the experiment on T-47D breast was above 100 µM in each case.

As for `CC(C)=CCC[C@H](C)[C@@H]1CC[C@]2(C)C3CC[C@]4(OC4(C)C)C(CCCO)[C@]3(C)CC[C@@]12C` (some centres undefined), the GI50 in the experiment with DU-145 prostate is 32.9 µM; in the experiment with HOP-62 NSCLC, 20.8 µM; in the experiment with HT29 colon it was 34 µM; in the experiment on NCI/ADR-RES ovarian, 23.5 µM; in the experiment on OVCAR-5 ovarian, 21 µM; in the experiment on RPMI-8226 leukemia, 33.6 µM. The GI50 in the experiment with SF-539 CNS was 23.6 µM; with SW-620 colon, 28 µM; with T-47D breast, 17.4 µM. Further, the TGI is above 100 µM in the experiment with DU-145 prostate; 44.4 µM in the experiment on HOP-62 NSCLC; above 100 µM with HT29 colon; 59.2 µM with NCI/ADR-RES ovarian; 47.1 µM in the experiment with OVCAR-5 ovarian; above 100 µM with RPMI-8226 leukemia. In addition, the TGI is 50.1 µM in the experiment on SF-539 CNS, 64.8 µM in the experiment with SW-620 colon and 45.6 µM in the experiment with T-47D breast.

As to `CC(C)(C)NC(C1=CC(C)(C)c2ccccc2C1=O)c1ccccc1` (centres undefined), the GI50 with DU-145 prostate was 1.55 µM; in the experiment with HOP-62 NSCLC, 2.16 µM; in the experiment on HT29 colon it was 1.54 µM; with NCI/ADR-RES ovarian, 2.45 µM; with OVCAR-5 ovarian it was 1.82 µM; in the experiment with SF-539 CNS it was 1.66 µM. The GI50 in the experiment on SK-MEL-2 melanoma was 1.49 µM; in the experiment with SW-620 colon it was 1.53 µM; in the experiment with T-47D breast, 1.12 µM. The TGI in the experiment with DU-145 prostate was found to be 3.24 µM; in the experiment with HOP-62 NSCLC, 4.84 µM; in the experiment on HT29 colon, 2.88 µM; in the experiment on NCI/ADR-RES ovarian, 6.29 µM; in the experiment with OVCAR-5 ovarian, 3.78 µM; in the experiment with SF-539 CNS, 3.02 µM. Also, the TGI in the experiment on SK-MEL-2 melanoma stood at 3.08 µM; in the experiment on SW-620 colon, 2.92 µM; in the experiment on T-47D breast it was 2.55 µM.

As for `C=C1C(=O)O[C@H]2[C@H]1CC/C(COC(=O)CCCCC(=O)OC/C1=C/CC[C@@]3(C)O[C@H]3[C@H]3OC(=O)C(=C)[C@@H]3CC1)=C\CC[C@@]1(C)O[C@@H]21`, the GI50 in the experiment with DU-145 prostate was 3.09 µM; in the experiment with HOP-62 NSCLC it was 3.15 µM; with NCI/ADR-RES ovarian, 5.45 µM; in the experiment with OVCAR-5 ovarian, 2.32 µM; with RPMI-8226 leukemia it was 1.81 µM; in the experiment with SF-539 CNS, 2.01 µM. For the same compound, the figures for the GI50 with SK-MEL-2 melanoma and in the experiment on SW-620 colon were 3.39 µM and 1.17 µM, respectively. In addition, the TGI in the experiment on DU-145 prostate is above 100 µM; in the experiment on HOP-62 NSCLC, 9.61 µM; with NCI/ADR-RES ovarian, above 100 µM; in the experiment on OVCAR-5 ovarian, 5.94 µM; in the experiment on RPMI-8226 leukemia, 5.59 µM; in the experiment with SF-539 CNS it was 4.96 µM. The TGI with SK-MEL-2 melanoma was found to be 75.6 µM; with SW-620 colon it was 2.78 µM.

With `O=c1cc(-c2cccc(C(F)(F)F)c2)[nH]c2cc3c(cc12)OCO3`, the GI50 was 0.517 µM with HOP-62 NSCLC; 3.11 µM in the experiment on HT29 colon; 0.251 µM in the experiment with NCI/ADR-RES ovarian; above 100 µM in the experiment on OVCAR-5 ovarian; 0.483 µM in the experiment with SF-539 CNS; 0.326 µM in the experiment with SW-620 colon. In the experiment on T-47D breast, the GI50 is above 100 µM. The TGI in the experiment with HOP-62 NSCLC is 16.8 µM and 22.5 µM; with HT29 colon, 40.8 µM and 13 µM; with NCI/ADR-RES ovarian, 2.14 µM and 0.829 µM; with OVCAR-5 ovarian it was 50 µM and > 100 µM; in the experiment on RPMI-8226 leukemia it was above 100 µM; in the experiment with SF-539 CNS it was 2.53 µM and 6.6 µM. The TGI with SK-MEL-2 melanoma was 3.34 µM; in the experiment on SW-620 colon, 50 µM and > 100 µM; in the experiment on T-47D breast, above 100 µM.

As to `CC(=O)N1c2ccccc2C23CCN(C)CC4C(C)OCC(C4CC2=O)C13` (centres undefined), the TGI in the experiment with DU-145 prostate, in the experiment on HT29 colon, in the experiment on NCI/ADR-RES ovarian, in the experiment with OVCAR-5 ovarian, in the experiment with SF-539 CNS and in the experiment with SK-MEL-2 melanoma was above 100 µM in each case. For the same compound, the TGI in the experiment on SW-620 colon and in the experiment with T-47D breast was above 100 µM in each case.

On to `Oc1ccccc1-c1nn(CNc2cccc(Cl)c2)c(=S)o1`, for which the GI50 is 90.8 µM in the experiment on HOP-62 NSCLC; 18.5 µM in the experiment on HT29 colon; 0.371 µM with NCI/ADR-RES ovarian; above 100 µM with OVCAR-5 ovarian; 15.3 µM with RPMI-8226 leukemia; 27.6 µM with SF-539 CNS. The GI50 was above 100 µM with SK-MEL-2 melanoma, 27.2 µM in the experiment with SW-620 colon and 28.7 µM with T-47D breast. Further, the TGI is above 100 µM in the experiment on HOP-62 NSCLC; above 100 µM with HT29 colon; 40 µM with NCI/ADR-RES ovarian; above 100 µM in the experiment with OVCAR-5 ovarian; 38.5 µM in the experiment with RPMI-8226 leukemia; above 100 µM in the experiment on SF-539 CNS. The TGI in the experiment with SK-MEL-2 melanoma, in the experiment on SW-620 colon and in the experiment on T-47D breast was above 100 µM each time.
